This is an account of results in ChEMBL document CHEMBL1201862, “PubChem BioAssay data set” (2004).

Among the test systems are 786-0; CAKI-1; CCRF-CEM; HCT-15; HL-60; IGROV-1; M14; MOLT-4; OVCAR-4; SF-268; SF-295; SK-MEL-28; SK-OV-3; SN12C; SNB-19; TK-10; U-251; UACC-62; UO-31; SW-620.
Common to all, as to test: inhibition of tumour cell growth, NCI panel, 48 h

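Values below derive from 48-hour exposures of cells grown in 96-well plates, with endpoints linearly interpolated between the two concentrations bracketing the appropriate inhibition level. Abbreviation: GI50, concentration required for 50% inhibition of growth.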 Activity calls are given as the source filed them. No stated cut-off is given here; in the data, active = GI50 up to about 1.1 µM and inactive = higher. A value given as a limit tells only on which side of the number the result lay.

For the molecule `C/C(CC(=O)Nc1cccc(Cl)c1C)=N\N=C(N)N`, the GI50 was > 100 µM (inactive) with 786-0; > 100 µM (inactive) with CAKI-1; > 100 µM (inactive) with CCRF-CEM; greater than 100 µM in the test with HCT-15; > 100 µM (inactive) in the test with HL-60; > 100 µM (inactive) with IGROV-1. For the same molecule, the GI50 in the test with M14, in the test with MOLT-4, with OVCAR-4, with SF-268, with SF-295 and in the test on SK-MEL-28 was > 100 µM (inactive) each time. In addition, the GI50 with SK-OV-3, with SN12C, with SNB-19, with TK-10, with U-251 and in the test on UACC-62 was > 100 µM (inactive) throughout. In the test on UO-31, the GI50 is > 100 µM (inactive).
For `C1C2CC3CC1CC(Nc1nc(NC45CC6CC(CC(C6)C4)C5)nc(NC45CC6CC(CC(C6)C4)C5)n1)(C2)C3`, the GI50 with 786-0 was > 20.8 µM (inactive); in the test on CAKI-1 it was > 100 µM (inactive); with CCRF-CEM it was > 92.9 µM (inactive); with HCT-15, 62.1 µM; with HL-60, 39.3 µM (inactive); in the test with M14, 44 µM (inactive). For the same molecule, the GI50 is 57.3 µM (inactive) in the test with MOLT-4; > 83 µM (inactive) in the test with OVCAR-4; > 100 µM (inactive) with SF-268; > 56.1 µM (inactive) with SF-295; > 31.1 µM (inactive) with SK-MEL-28; > 100 µM (inactive) in the test with SK-OV-3. Also, the GI50 in the test on SN12C is > 100 µM (inactive); with SNB-19 it was 43.5 µM (inactive); with SW-620 it was 79.4 µM (inactive); in the test on TK-10 it was > 60 µM (inactive); in the test with U-251, 43.8 µM (inactive); in the test on UACC-62, > 44.7 µM (inactive). In addition, in the test on UO-31, the GI50 was > 38.3 µM (inactive).
With `COc1ccc(-n2c(=O)c3nc(S)[nH]c3n(-c3ccc(OC)cc3)c2=S)cc1`, the GI50 in the test with 786-0 is > 100 µM (inactive); in the test with CAKI-1, > 100 µM (inactive); in the test with CCRF-CEM, > 100 µM (inactive); in the test on HCT-15 it was greater than 100 µM; in the test on HL-60, > 100 µM (inactive); with IGROV-1, > 100 µM (inactive). Moreover, the GI50 in the test with M14, in the test with MOLT-4, in the test with OVCAR-4, with SF-268, in the test on SF-295 and in the test with SK-MEL-28 was > 100 µM (inactive) each time. For the same molecule, the GI50 in the test on SK-OV-3, with SN12C, with SW-620, with TK-10, in the test with U-251 and in the test on UACC-62 was > 100 µM (inactive) in each case. Also, the GI50 with UO-31 is > 100 µM (inactive).
Turning to `C[N+](C)(C)CC1CCCC(C[N+](C)(C)C)C1O` (stereo unspecified), the GI50 in the test on 786-0 was > 100 µM (inactive); with CAKI-1 it was > 100 µM (inactive); in the test on CCRF-CEM, > 100 µM (inactive); in the test with HCT-15 it was greater than 100 µM; in the test with HL-60, > 100 µM (inactive); in the test with IGROV-1 it was > 100 µM (inactive). Moreover, the GI50 with M14, with MOLT-4, with OVCAR-4, in the test on SF-268, in the test with SF-295 and in the test on SK-MEL-28 was > 100 µM (inactive) each time. The GI50 in the test with SK-OV-3, in the test with SN12C, with SW-620, in the test on TK-10, with U-251 and in the test with UACC-62 was > 100 µM (inactive) throughout. The GI50 in the test with UO-31 was > 100 µM (inactive).
